# Test results as given in patent publication US20260355196A1, “INHIBITORS AND DEGRADERS OF PIP4K PROTEIN” (Larkspur Biosciences, Inc., priority 2023, published 2026).
# Molecular target: T1, PIP4K2C (Homo sapiens, UniProt Q8TBX8)
# T1 sequence (Q8TBX8 1-421): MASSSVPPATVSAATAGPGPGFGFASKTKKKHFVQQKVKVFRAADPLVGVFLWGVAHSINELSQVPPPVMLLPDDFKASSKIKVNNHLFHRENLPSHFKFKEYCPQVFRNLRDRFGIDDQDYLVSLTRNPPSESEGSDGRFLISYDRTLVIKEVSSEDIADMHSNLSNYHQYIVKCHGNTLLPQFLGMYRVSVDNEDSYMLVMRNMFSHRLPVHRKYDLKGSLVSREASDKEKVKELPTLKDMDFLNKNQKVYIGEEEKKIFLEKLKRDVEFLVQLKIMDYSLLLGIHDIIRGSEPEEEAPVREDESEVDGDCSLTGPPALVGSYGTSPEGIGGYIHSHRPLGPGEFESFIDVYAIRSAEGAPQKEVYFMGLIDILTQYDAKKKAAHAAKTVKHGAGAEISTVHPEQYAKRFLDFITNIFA
# Assay: HiBiT PIP4K2C degradation assay in MOLT-4 cells (endogenous PIP4K2C C-terminally tagged with HiBiT)
# Assay type: cell-based
# Parameters: untagged in primary human PBMCs and monocyte-derived dendritic cells
# Settings: 6 hours of incubation time, rather than 24 hours; MOLT-4, top concentration 10 micromolar; read-out: HiBIT-degradation MOLT4 PIP4k2C DC50 (6 hours, marked *)
# Summary of the method: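 MOLT-4 knock-in line, HiBiT on PIP4K2C C-terminus; 22,500 cells/well; 10-pt 3-fold titration from 10 micromolar, n=2; 24 h or 6 h, 37 C, 5% CO2; Nano-Glo HiBiT lytic luminescence; DC50 via Hill equation.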
row,SMILES,DC50 [nM]
1,"O=C1CCC(Nc2ccc(N3CCN(CC4(F)CCN(C(=O)[C@H]5CC[C@H](Nc6ncc(F)c(-c7cccc(-c8ccccc8)c7)n6)CC5)CC4)CC3)c(F)c2)C(=O)N1 (stereo partly drawn) [Compound 484, trans-3-[3-fluoro-4-[4-[[4-fluoro-1-[4-[[5-fluoro-4-(3-phenylphenyl)pyrimidin-2-yl]amino]cyclohexanecarbonyl]-4-piperidyl]methyl]piperazin-1-yl]anilino]piperidine-2,6-dione]",< 500
2,"O=C1CCC(Nc2ccc(N3CCC(N4CCC(NC(=O)[C@H]5CC[C@H](Nc6ncc(F)c(-c7cccc(-c8ccc[nH]c8=O)c7)n6)CC5)CC4)C(F)C3)c(F)c2)C(=O)N1 (stereo partly drawn) [Compound 453, trans-N-(1′-(4-((2,6-dioxopiperidin-3-yl)amino)-2-fluorophenyl)-3′-fluoro-[1,4′-bipiperidin]-4-yl)-4-((5-fluoro-4-(3-(2-oxo-1,2-dihydropyridin-3-yl)phenyl)pyrimidin-2-yl)amino)cyclohexane-1-carboxamide]",< 500

# The next lines start with the values.
row,DC50 [nM],SMILES
1,< 500,"O=C1CCC(Nc2ccc(C3CCN([C@H]4CC[C@H](C(=O)N[C@H]5CC[C@H](Nc6ncc(F)c(-c7ccnc(-n8ccccc8=O)c7)n6)CC5)CC4)CC3)c(F)c2)C(=O)N1 (stereo partly drawn) [Compound 573, trans-(1r,4R)-4-(4-(4-((2,6-dioxopiperidin-3-yl)amino)-2-fluorophenyl)piperidin-1-yl)-N-((1r,4R)-4-((5-fluoro-4-(2-oxo-2H-[1,2′-bipyridin]-4′-yl)pyrimidin-2-yl)amino)cyclohexyl)cyclohexane-1-carboxamide]"
2,< 500,"O=C1CCC(Nc2ccc(N3CCC(N4CCC(C(=O)N[C@H]5CC[C@H](Nc6ncc(F)c(-c7cccc(C8CC8)c7)n6)CC5)CC4)C(F)(F)C3)c(F)c2)C(=O)N1 (stereo partly drawn) [Compound 497, trans-N-(4-((4-(3-cyclopropylphenyl)-5-fluoropyrimidin-2-yl)amino)cyclohexyl)-1′-(4-((2,6-dioxopiperidin-3-yl)amino)-2-fluorophenyl)-3′,3′-difluoro-[1,4′-bipiperidine]-4-carboxamide]"
3,< 500,"O=C1CCC(Nc2ccc(C3CCN([C@H]4CC[C@H](NC(=O)[C@H]5CC[C@H](Nc6ncc(F)c(-c7cccc(N8CCCCC8)c7)n6)CC5)CC4)CC3)c(F)c2)C(=O)N1 (stereo partly drawn) [Compound 515, trans-N-(trans-4-(4-(4-((2,6-dioxopiperidin-3-yl)amino)-2-fluorophenyl)piperidin-1-yl)cyclohexyl)-4-((5-fluoro-4-(3-(piperidin-1-yl)phenyl)pyrimidin-2-yl)amino)cyclohexane-1-carboxamide]"
4,< 500,"O=C1CCC(Nc2ccc(C3CCN([C@H]4CC[C@H](NC(=O)[C@H]5CC[C@H](Nc6ncc(F)c(-c7cccc(N8CCOCC8)c7)n6)CC5)CC4)CC3)c(F)c2)C(=O)N1 (stereo partly drawn) [Compound 657, trans-(1r,4R)—N-((1r,4R)-4-(4-(4-((2,6-dioxopiperidin-3-yl)amino)-2-fluorophenyl)piperidin-1-yl)cyclohexyl)-4-((5-fluoro-4-(3-morpholinophenyl)pyrimidin-2-yl)amino)cyclohexane-1-carboxamide]"
5,< 500,"Cn1nc(C2CCC(=O)NC2=O)c2ccc(N3CCN(CC4CCN(C(=O)O[C@H]5CC[C@H](Nc6ncc(F)c(-c7cccc(-c8ccccc8)c7)n6)CC5)CC4)CC3)cc21 (stereo partly drawn) [Compound 643, trans-4-((4-([1,1′-biphenyl]-3-yl)-5-fluoropyrimidin-2-yl)amino)cyclohexyl 4-((4-(3-(2,6-dioxopiperidin-3-yl)-1-methyl-1H-indazol-6-yl)piperazin-1-yl)methyl)piperidine-1-carboxylate]"
6,< 500,"O=C1CCC(Nc2ccc(N3CCN([C@H]4CC[C@H](OC(=O)N5CCC(Nc6ncc(F)c(-c7cccc(-n8ccccc8=O)c7)n6)CC5)CC4)CC3)c(F)c2)C(=O)N1 (stereo partly drawn) [Compound 699, trans-(1R,4r)-4-(4-(4-(((R)-2,6-dioxopiperidin-3-yl)amino)-2-fluorophenyl)piperazin-1-yl)cyclohexyl 4-((5-fluoro-4-(3-(2-oxopyridin-1 (2H)-yl)phenyl)pyrimidin-2-yl)amino)piperidine-1-carboxylate]"
7,< 500,"Cn1nc([C@@H]2CCC(=O)NC2=O)c2ccc(C3CCN(CC4CCN(C(=O)O[C@H]5CC[C@H](Nc6ncc(F)c(-c7cccc(-n8ccccc8=O)c7)n6)CC5)CC4)CC3)cc21 (single isomer, unassigned) [Compound 638]"
8,< 500,"O=C1CCC(Nc2ccc(N3CCC(N4CCC(NC(=O)[C@H]5CC[C@H](Nc6ncc(F)c(-c7cccc(N8CCCOC8=O)c7)n6)CC5)CC4)CC3)c(F)c2)C(=O)N1 (stereo partly drawn) [Compound 522, trans-N-(1′-(4-((2,6-dioxopiperidin-3-yl)amino)-2-fluorophenyl)-[1,4′-bipiperidin]-4-yl)-4-((5-fluoro-4-(3-(2-oxo-1,3-oxazinan-3-yl)phenyl)pyrimidin-2-yl)amino)cyclohexane-1-carboxamide]"
9,< 500,"O=C1CCC(Nc2ccc(N3CCN(CC4CCN(C(=O)[C@H]5CC[C@H](Nc6ncc(F)c(-c7cccc(N8CCOCC8)c7)n6)CC5)CC4)CC3)c(F)c2)C(=O)N1 (stereo partly drawn) [Compound 686, trans-3-((3-fluoro-4-(4-((1-(4-((5-fluoro-4-(3-morpholinophenyl)pyrimidin-2-yl)amino)cyclohexane-1-carbonyl)piperidin-4-yl)methyl)piperazin-1-yl)phenyl)amino)piperidine-2,6-dione]"

# Same assay, conditions: 24 hours incubation, MOLT-4, top concentration 10 micromolar; read-out: HiBIT-degradation MOLT4 PIP4k2C 24 hours DC50
row,DC50 [nM],SMILES
1,> 5000,"O=C1CCC(Nc2ccc(C3CCN(CCC4CCN(C(=O)[C@H]5CCC[C@@H](Nc6ncc(F)c(-c7cccc(-n8ccccc8=O)c7)n6)C5)CC4)CC3)c(F)c2)C(=O)N1 (stereo partly drawn) [Compound 309, 3-((3-fluoro-4-(1-(2-(1-((1S,3R)-3-((5-fluoro-4-(3-(2-oxopyridin-1(2H)-yl)phenyl)pyrimidin-2-yl)amino)cyclohexane-1-carbonyl)piperidin-4-yl)ethyl)piperidin-4-yl)phenyl)amino)piperidine-2,6-dione]"
2,< 500,"O=C1CCC(N2Cc3cc(OC4CCN(C(=O)CC5CCN(C(=O)[C@H]6CCC[C@@H](Nc7ncc(Cl)c(-c8cccc(-c9ccccc9)c8)n7)C6)CC5)CC4)ccc3C2=O)C(=O)N1 (relative stereo) [Compound 81, cis-3-(5-((1-(2-(1-(3-((4-([1,1′-biphenyl]-3-yl)-5-chloropyrimidin-2-yl)amino)cyclohexane-1-carbonyl)piperidin-4-yl)acetyl)piperidin-4-yl)oxy)-1-oxoisoindolin-2-yl)piperidine-2,6-dione]"
3,< 500,"O=C1CCC(Nc2ccc(C3CCN(CC4CCN(CC(=O)N5CCC(Nc6ncc(F)c(-c7cccc(-n8ccccc8=O)c7)n6)CC5)CC4)CC3)c(F)c2)C(=O)N1 (stereo not drawn) [Compound 314, 3-((3-fluoro-4-(1-((1-(2-(4-((5-fluoro-4-(3-(2-oxopyridin-1(2H)-yl)phenyl)pyrimidin-2-yl)amino)piperidin-1-yl)-2-oxoethyl)piperidin-4-yl)methyl)piperidin-4-yl)phenyl)amino)piperidine-2,6-dione]"
4,< 500,"O=C1CCC(N2Cc3cc(OC4CCN(C(=O)CN5CCN(C(=O)[C@H]6CCC[C@@H](Nc7ncc(Cl)c(-c8cccc(-c9ccccc9)c8)n7)C6)CC5)CC4)ccc3C2=O)C(=O)N1 (relative stereo) [Compound 82, cis-3-(5-((1-(2-(4-(3-((4-([1,1′-biphenyl]-3-yl)-5-chloropyrimidin-2-yl)amino)cyclohexane-1-carbonyl)piperazin-1-yl)acetyl)piperidin-4-yl)oxy)-1-oxoisoindolin-2-yl)piperidine-2,6-dione]"
5,< 500,"O=C(COc1ccc2c(c1)CN(C1CCC(=O)NC1=O)C2=O)NCCC(=O)N1CCC(C(=O)N2CCC(Nc3ncc(Cl)c(-c4cccc(-c5ccccc5)c4)n3)CC2)CC1 (stereo not drawn) [Compound 67, N-(3-(4-(4-((4-([1,1′-biphenyl]-3-yl)-5-chloropyrimidin-2-yl)amino)piperidine-1-carbonyl)piperidin-1-yl)-3-oxopropyl)-2-((2-(2,6-dioxopiperidin-3-yl)-1-oxoisoindolin-5-yl)oxy)acetamide]"
6,< 500,"Cn1nc(C2CCC(=O)NC2=O)c2ccc(C3CCN(CC4CCN(CC(=O)N[C@H]5CC[C@H](Nc6ncc(F)c(-c7cccc(-n8ccccc8=O)c7)n6)CC5)CC4)CC3)cc21 (stereo partly drawn) [Compound 304, trans-2-(4-((4-(3-(2,6-dioxopiperidin-3-yl)-1-methyl-1H-indazol-6-yl)piperidin-1-yl)methyl)piperidin-1-yl)-N-(4-((5-fluoro-4-(3-(2-oxopyridin-1(2H)-yl)phenyl)pyrimidin-2-yl)amino)cyclohexyl)acetamide]"
7,< 500,"Cn1c(=O)n(C2CCC(=O)NC2=O)c2ccc(C3CCN(CC4CCN(CC(=O)N[C@H]5CC[C@H](Nc6ncc(F)c(-c7cccc(-n8ccccc8=O)c7)n6)CC5)CC4)CC3)cc21 (stereo partly drawn) [Compound 301, trans-2-(4-((4-(1-(2,6-dioxopiperidin-3-yl)-3-methyl-2-oxo-2,3-dihydro-1H-benzo[d]imidazol-5-yl)piperidin-1-yl)methyl)piperidin-1-yl)-N-(4-((5-fluoro-4-(3-(2-oxopyridin-1(2H)-yl)phenyl)pyrimidin-2-yl)amino)cyclohexyl)acetamide]"
